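48-hour exposure; five concentrations; linearly interpolated endpoints. Here, GI50 denotes the concentration required for 50% inhibition of growth.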 Calls of active or inactive are those of the source. No stated cut-off is given here; in the data, active = GI50 up to about 1.1 µM and inactive = higher.
Legend:
Experiment in all cases: NCI anticancer screen, dose series, 48 h
OVCAR-8 = tested on: OVCAR-8
SN12C = tested on: SN12C
TK-10 = tested on: TK-10
Hs-578T = tested on: Hs-578T
T47D = tested on: T47D
SR = tested on: SR
IGROV-1 = tested on: IGROV-1
SF-268 = tested on: SF-268
SK-MEL-2 = tested on: SK-MEL-2
UACC-257 = tested on: UACC-257
OVCAR-4 = tested on: OVCAR-4
SF-295 = tested on: SF-295
MDA-MB-435 = tested on: MDA-MB-435
A498 = tested on: A498
MOLT-4 = tested on: MOLT-4
ACHN = tested on: ACHN
DU-145 = tested on: DU-145
SK-MEL-5 = tested on: SK-MEL-5
HCT-15 = tested on: HCT-15
K562 = tested on: K562
HOP-92 = tested on: HOP-92
CAKI-1 = tested on: CAKI-1
SK-OV-3 = tested on: SK-OV-3
NCI/ADR-RES = tested on: NCI/ADR-RES
UACC-62 = tested on: UACC-62
U-251 = tested on: U-251
COLO 205 = tested on: COLO 205
HCT-116 = tested on: HCT-116
MDA-N = tested on: MDA-N
OVCAR-3 = tested on: OVCAR-3
NCI-H226 = tested on: NCI-H226
M14 = tested on: M14
MDA-MB-231 = tested on: MDA-MB-231
SF-539 = tested on: SF-539
HT-29 = tested on: HT-29
OVCAR-5 = tested on: OVCAR-5
BT-549 = tested on: BT-549
MCF7 = tested on: MCF7
NCI-H23 = tested on: NCI-H23
SK-MEL-28 = tested on: SK-MEL-28
Malme-3M = tested on: Malme-3M
LOX IMVI = tested on: LOX IMVI
786-0 = tested on: 786-0
A549 = tested on: A549
SNB-75 = tested on: SNB-75
HOP-62 = tested on: HOP-62
SNB-19 = tested on: SNB-19
PC-3 = tested on: PC-3
UO-31 = tested on: UO-31
CCRF-CEM = tested on: CCRF-CEM
RPMI-8226 = tested on: RPMI-8226
KM12 = tested on: KM12
EKVX = tested on: EKVX
HL-60 = tested on: HL-60
RXF 393 = tested on: RXF 393
SW-620 = tested on: SW-620
HCC 2998 = tested on: HCC 2998

For `CC(NNC(=O)c1ccncc1)c1ccccc1` (configuration not stated), the GI50 (OVCAR-8) was > 100 µM (inactive), the GI50 (SN12C) was > 100 µM (inactive) and the GI50 (TK-10) was > 100 µM (inactive). The GI50 (Hs-578T) was > 100 µM (inactive), the GI50 (T47D) was > 100 µM (inactive) and the GI50 (SR) was > 100 µM (inactive). For the same molecule, the GI50 (IGROV-1) was > 100 µM (inactive), the GI50 (SF-268) was > 100 µM (inactive) and the GI50 (SK-MEL-2) was > 100 µM (inactive). The GI50 (UACC-257) was > 100 µM (inactive), the GI50 (OVCAR-4) was > 100 µM (inactive) and the GI50 (SF-295) was > 100 µM (inactive). The GI50 (MDA-MB-435) was > 100 µM (inactive), the GI50 (A498) was > 100 µM (inactive) and the GI50 (MOLT-4) was > 100 µM (inactive). The GI50 (ACHN) was > 100 µM (inactive), the GI50 (DU-145) was > 100 µM (inactive) and the GI50 (SK-MEL-5) was > 100 µM (inactive). For the same molecule, the GI50 (HCT-15) was greater than 100 µM, the GI50 (K562) was > 100 µM (inactive) and the GI50 (HOP-92) was > 100 µM (inactive). The GI50 (CAKI-1) was > 100 µM (inactive), the GI50 (SK-OV-3) was > 100 µM (inactive) and the GI50 (NCI/ADR-RES) was > 100 µM (inactive). For the same molecule, the GI50 (UACC-62) was > 100 µM (inactive), the GI50 (U-251) was > 100 µM (inactive) and the GI50 (COLO 205) was > 100 µM (inactive). The GI50 (HCT-116) was > 100 µM (inactive), the GI50 (MDA-N) was > 100 µM (inactive) and the GI50 (OVCAR-3) was > 100 µM (inactive). The GI50 (NCI-H226) was > 100 µM (inactive), the GI50 (M14) was > 100 µM (inactive) and the GI50 (MDA-MB-231) was > 100 µM (inactive). For the same molecule, the GI50 (SF-539) was > 100 µM (inactive), the GI50 (HT-29) was > 100 µM (inactive) and the GI50 (OVCAR-5) was > 100 µM (inactive). The GI50 (BT-549) was > 100 µM (inactive), the GI50 (MCF7) was > 100 µM (inactive) and the GI50 (NCI-H23) was > 100 µM (inactive). For the same molecule, the GI50 (SK-MEL-28) was > 100 µM (inactive), the GI50 (Malme-3M) was > 100 µM (inactive) and the GI50 (LOX IMVI) was > 100 µM (inactive). The GI50 (786-0) was > 100 µM (inactive), the GI50 (A549) was > 100 µM (inactive) and the GI50 (SNB-75) was > 100 µM (inactive). The GI50 (HOP-62) was > 100 µM (inactive), the GI50 (SNB-19) was > 100 µM (inactive) and the GI50 (PC-3) was > 100 µM (inactive). For the same molecule, the GI50 (UO-31) was > 100 µM (inactive), the GI50 (CCRF-CEM) was > 100 µM (inactive) and the GI50 (RPMI-8226) was > 100 µM (inactive). For the same molecule, the GI50 (KM12) was > 100 µM (inactive), the GI50 (EKVX) was > 100 µM (inactive) and the GI50 (HL-60) was > 100 µM (inactive). The GI50 (RXF 393) was > 100 µM (inactive), the GI50 (SW-620) was > 100 µM (inactive) and the GI50 (HCC 2998) was > 100 µM (inactive).
